ChEMBL document CHEMBL4184107, “Structure based design of nicotinamide phosphoribosyltransferase (NAMPT) inhibitors from a phenotypic screen” (Bioorg Med Chem Lett, 2018)

What was measured:
[1] = Permeability of the compound by PAMPA; type: ADME
[2] = Clearance in mouse liver microsomes; type: ADME, microsome; conditions: read-out: CLH
[3] = Half life in mouse microsomes; type: ADME, Microsome
[4] = AUC in nude mouse at 15 mg/kg, po by HPLC-MS/MS analysis; type: ADME, organism-based; conditions: in vivo
[5] = Cmax in nude mouse at 15 mg/kg, po by HPLC-MS/MS analysis; type: ADME, organism-based; design: dose 15 mg/kg, route oral; conditions: in vivo
[6] = Tmax in nude mouse at 15 mg/kg, po by HPLC-MS/MS analysis; type: ADME, organism-based; conditions: in vivo
[7] = Tmax in nude mouse at 10 mg/kg, po by HPLC-MS/MS analysis; type: ADME, organism-based; conditions: in vivo
[8] = AUC in nude mouse at 10 mg/kg, po by HPLC-MS/MS analysis; type: ADME, organism-based; conditions: in vivo
[9] = Cmax in nude mouse at 10 mg/kg, po by HPLC-MS/MS analysis; type: ADME, organism-based; design: dose 10 mg/kg, route oral; conditions: in vivo
[10] = Clearance in nude mouse at 1 mg/kg, iv by HPLC-MS/MS analysis; type: ADME, organism-based; conditions: in vivo
[11] = Half life in nude mouse at 1 mg/kg, iv by HPLC-MS/MS analysis; type: ADME, organism-based; conditions: in vivo
[12] = AUC in nude mouse at 1 mg/kg, iv by HPLC-MS/MS analysis; type: ADME, organism-based; conditions: in vivo
[13] = Oral bioavailability in nude mouse at 10 mg/kg by HPLC-MS/MS analysis; type: ADME, organism-based; conditions: in vivo
[14] = Volume of distribution at steady state in nude mouse at 1 mg/kg, iv by HPLC-MS/MS analysis; type: ADME, organism-based; conditions: in vivo, read-out: Vdss

Row | Structure (SMILES) | permeability [1] | microsomal CLint [2] [µL/min/mg] | further results
1 | C[C@H](NC(=O)c1ccc(C#N)cc1)c1ccc(NC(=O)[C@H]2C[C@@H]2c2cccnc2)cc1 | Impermeable | 53 | –
2 | C[C@H](NC(=O)c1ccc(CN2CCOCC2)cc1)c1ccc(NC(=O)[C@H]2C[C@@H]2c2cccnc2)cc1 | Impermeable | – | half-life [3]: 7.67 h
3 | C[C@H](NC(=O)CC(F)(F)F)c1ccc(NC(=O)[C@H]2C[C@@H]2c2cccnc2)cc1 | Impermeable | 83.7 | –
4 | O=C(NCc1ccc(S(=O)(=O)c2cccc(Cl)c2)cc1)c1cc2cnccc2[nH]1 | – | – | AUC [4]: 9.2 µM·h; Cmax [5]: 2.07 µM; Tmax [6]: 1 h
5 | C[C@H](NC(=O)C1CCOCC1)c1ccc(NC(=O)[C@H]2C[C@@H]2c2cccnc2)cc1 | Impermeable | 25.1 | –
6 | C[C@H](NC(=O)c1ncccn1)c1ccc(NC(=O)[C@H]2C[C@@H]2c2cccnc2)cc1 | Permeable | 38.4 | –
7 | C[C@H](NC(=O)c1ccccc1)c1ccc(NC(=O)[C@H]2C[C@@H]2c2cccnc2)cc1 | Permeable | 148 | Tmax [7]: 0.5 h; AUC [8]: 19.2 µM·h; Cmax [9]: 12.7 µM; clearance [10]: 6.8 mL/min/kg; half-life [11]: 1.5 h; AUC [12]: 6.18 µM·h; bioavailability [13]: 31%; Vd [14]: 0.5 L/kg
8 | C[C@H](NC(=O)c1ccc(F)cc1)c1ccc(NC(=O)[C@H]2C[C@@H]2c2cccnc2)cc1 | Permeable | 13.7 | –

More lines, main results first:

Row | permeability [1] | microsomal CLint [2] [µL/min/mg] | Structure (SMILES) | further results
9 | Permeable | 65.4 | C[C@H](NC(=O)[C@@H]1CCCN1C)c1ccc(NC(=O)[C@H]2C[C@@H]2c2cccnc2)cc1 | –
10 | Permeable | < 3.42 | C[C@H](NC(=O)c1ccccn1)c1ccc(NC(=O)[C@H]2C[C@@H]2c2cccnc2)cc1 | –
11 | Impermeable | – | CCC(=O)N[C@@H](C)c1ccc(NC(=O)[C@H]2C[C@@H]2c2cccnc2)cc1 | half-life [3]: 35 h
12 | Impermeable | 43.2 | COCC(=O)N[C@@H](C)c1ccc(NC(=O)[C@H]2C[C@@H]2c2cccnc2)cc1 | –
